Experiments:
[1] = test system: chicken chorioallantoic membrane (CAM); test: Effect of LQC-T on CAM angiogenesis (CAM method, vessel count); type: in vivo; conditions: 20 μg/chicken embryo; for small vessel angiogenesis of CAM model, Medicine group (X ± S): 72 h incubation, number of small vessels, blank group 8.67 ± 1.03
Procedure: Embryonated chicken eggs of Lohmann of German, egg weight 50-60 g (embryo experiment center of Chinese Agriculture University)
LQC-T (1-6) (prepared by the methods of examples 2-7), wherein the purity was ≧98%, determined by high performance liquid chromatography (HPLC), meeting the requirements of the experiment. The powder was carefully sealed and preserved at 4° C.
Aseptic gelatin sponge, which was made into a wafer having a diameter of 5 mm by a hole-puncher in advance, was used as sample carrier. The prepared LQC-T series compounds were added according to 20 μg/chicken embryo in an aseptic environment. The 0.9% physiological saline was used in a blank group. The samples were air-dried in an aseptic environment.
A hatching egg after disinfection was put into a 37° C. incubation box with air sac upward until the seventh day of incubation. The egg embryo was disinfected using alcohol at a super clean bench, and then a small hole was drilled at the top of the egg embryo using a dental drill, and the nearby egg shell and shell membrane were removed carefully to form the opening with the size of about 1.2 cm×1.2 cm. After spotting the location for applying the sample, the air sac was broken with injection needle at the interface between air sac and the yolk and then 1-2 drops of aseptic physiological saline was injected so that the air sac membrane was separated from CAM membrane. Then the upper air sac membrane was slightly removed with a nipper to expose the lower CAM membrane.
The medicine-containing carrier was softly put by a nipper at the locations of CAM and yolk cyst membrane with fewer vessels, the opening was then sealed with aseptic transparent tape and incubation was continued for another 72 h.
After the incubation, the transparent tape blocking the chicken embryo air sac was removed with a nipper. The liquid of equal-volumetrically mixed methanol/acetone 1-2 ml was added and fixed at room temperature for 10 min. The CAM membrane was carefully removed and put it onto a slide. Then it was observed and a photograph was taken. The effect of the compounds on angiogenesis was evaluated by the count analytic method using the numbers of great vessels, medium vessels and small vessels arranged radially around by the carrier.
All the data were statistically analyzed using SPSS11.0 software pack. The difference between the administration group and the blank group was given through one-way variance analysis. P<0.05 had statistical significance.

ICR mice = test: Buccal respiration duration of mice after head cutting (4° C. icy water swimming model); type: in vivo, mouse; conditions: 80 mg/kg intragastrically once a day for 10 days, control 32.45 ± 5.49
Procedure: ICR mice, half female and half male, weighing 19-21 g, certificate No.: SCXK (Jing) 2006-0009, provided by BeiJing Vital River Laboratories.
LQC-T4, tetramethylpyrazine (TMP), vanillic acid, Nimodipine (ShanDong XinHua Pharmaceutical CO., Ltd, batch No.: 0908164)
160 male ICR mice were divided into 8 groups randomly by weight, each of which contained 20 mice, wherein 0.5% CMC-NA (0.2 ml·10 g^−1) was administrated intragastrically to the blank control group; 6.7 mg·kg^−1 Nimodipine (0.2 ml·10 g^−1) was administrated intragastrically to the positive control group; 100 mg·kg^−1 TMP (0.2 ml·10 g^−1) was administrated intragastrically to the TMP group, three different dosage of 200 mg·kg^−1, 100 mg·kg^−1, 50 mg·kg^−1 were administrated intragastrically to the LQC-T4 (0.2 ml·10 g^−1) group relatively, and 125 mg·kg^−1 TMP+80 mg·kg^−1 vanillitc acid (0.2 ml·10 g^−1) was administrated intragastrically respectively. The medicines were continuously administrated once a day for 10 days.
The literature was referred to: [LiuZhenquan, SunHui, Xuqiuping, etc., Experimental Study on the Brain-Protective Effect of the Effective Fraction of Naoxin Formula in the Mouse Model of with Load-Bearing Swimming in Cold Water, Journal of Beijing University of Traditional Chinese Medicine [J], 2004, 27(4): 54-56] and the method recorded therein was improved. The head was rapidly cut with a scissor at post mortem when the mouse swam in 4° C. icy water for 3 min after the final administration. After head being cut, the buccal respiration duration of mouse was recorded.
(§1) The SAS 8.2 statistical software was used to carry out the one-way ANOVA variance analysis and the difference among the groups were compared by t-test.

[2] = test system: rat primary cortical neurons; test: Proliferation of primary neuronal cells by MTT and morphology observation; type: cell-based; conditions: 60 μM; normal neurons; control 0.7567 ± 0.1109
Procedure: SD pregnant rats: pregnant for 16-18 d, certificate number: SCXK (Jing) 2006-0009, provided by BeiJing Vital River Laboratories.
LQC-T4 (prepared by the method of example 5), the purity was ≧98%, determined by high performance liquid chromatography (HPLC), which met the requirement of the experiment. The powder was carefully sealed and preserved at 4° C. The prepared LQC-T4 was dissolved using dimethyl sulfoxide and made into […] storing liquid for use.
Referring to the document [HongQingtao, TangYipeng, Neurons of cerebral cortex of newborn rats in in vitro primary culture, Chinese Journal of Neuroanatomy, 1994, 10(3):259-262], the pregnant 16-18 d SD rat was executed by dislocation. The fetal rat was taken out in an aseptic environment, the meninges and blood steak were stripped, the cortex was separated and cut into 1 mm^3 tissue block (all carried out on ice). The tissue block was digested at 37[…] with 0.1% pancreatic enzyme-0.02% EDTA for 20 min. Digesting was stopped using DMEM containing fetal calf serum and the number of the cells was adjusted to 5×10^5 cells ml^−1. The resultant cells were inoculated into a 96 well plate treated by 0.001% polylysine and the plate was put in a 37° C. 5% CO2 incubation box to be cultured. The cultivation liquid was changed (totally) after 48 h and add adenine arabinoside was added (final concentration is 5 μM) to inhibit the excessive proliferation of non-neurons. The cultivation liquid was changed after 48 h with fresh cultivation liquid and culture was continued. And the cultivation liquid was changed every 3 days afterward.
The cultivation liquid was sucked away on the eighth day of neuron culture. DMEM culture-medium containing 0.15% DMSO was added to the blank group, while 60 μM, 30 μM, 15 μM LQC-T4, 60 μM tetramethylpyrazine and 60 μM vanillic acid were respectively added to the administration group. Ten parallel wells were set as a group. And they were put into a 37° C., 5% CO2 incubation box to continue culturing for 24 h.
5 mg/ml MTT 20 μl was added to each well at the time of 4 h before the experiment ended and the cultivation liquid was sucked away. DMSO 200 μl was added to each well. When the purple particles were completely dissolved, the enzyme-linked immune assay was used to measure the optical density at 540 nm.
as §1

| Compound | small vessel angiogenesis of CAM model, Medicine group (X ± S) [1] | other results |
| --- | --- | --- |
| Cc1nc(C)c(COC(=O)/C=C/c2ccc(OCc3nc(C)c(C)nc3C)c(OCc3nc(C)c(C)nc3C)c2)nc1C [LQC-T6] | 8.83 ± 3.71 | – |
| COc1cc(C(=O)O)ccc1O [Vanillic acid, vanillic acid, reference compound] | – | respiration duration (ICR mice): 35.73 ± 5.66 s; MTT(A540), 24 h after the administration [2]: 0.8820 ± 0.1469 |
| (3,5,6-trimethylpyrazin-2-yl)methyl 4-hydroxy-3-methoxybenzoate [LQC-T1] | 12.7 ± 2.73 | – |
| Cc1nc(C)c(COC(=O)c2ccc(OCc3nc(C)c(C)nc3C)c(OCc3nc(C)c(C)nc3C)c2)nc1C [LQC-T2, (3,5,6-trimethylpyrazine-2-yl)methyl-3,4-bis((3,5,6-trimethylpyrazine-2-yl)methoxy) benzoate] | 14.17 ± 1.47 | effect on growth of new (small) vessels compared with the blank group ([1]; result in words): significant promoting effect |
| COc1cc(C(=O)OCc2nc(C)c(C)nc2C)ccc1O [LQC-T3, (3,5,6-trimethylpyrazine-2-yl)methyl-3-methoxy-4-hydroxybenzoate] | 10.4 ± 2.16 | – |
| Cc1nc(C)c(COc2ccc(C=O)cc2OCc2nc(C)c(C)nc2C)nc1C [LQC-T5, 3,4-bis((3,5,6-trimethylpyrazine-2-yl)methoxy)benzaldehyde] | 14.17 ± 5.19 | – |

From patent US8987449B2, “Medicine for treating ischemic brain injury and its sequelae, and preparation method thereof” (Haimin Lei, priority 2011, dated 2015)
